Measured values reported in patent publication US20210315893A1 (Galapagos NV, priority 2017, published 2021).
Where two headings read alike, the source gives them in different places.

Assays:
[1] = target: T1, human GPCR sphingosine 1-phosphate receptor 2 (Homo sapiens, UniProt O95136); test: S1PR2 antagonist Ca2+ flux assay; format: cell-based; details: antagonist mode, CHO-S1PR2 cells, S1P at EC80, Ca2+ fluorescence; read-out: S1P2 EC50 (nM), S1P2 antagonist EC50
T1 construct: host or cells: CHO
T1 sequence (O95136 whole entry): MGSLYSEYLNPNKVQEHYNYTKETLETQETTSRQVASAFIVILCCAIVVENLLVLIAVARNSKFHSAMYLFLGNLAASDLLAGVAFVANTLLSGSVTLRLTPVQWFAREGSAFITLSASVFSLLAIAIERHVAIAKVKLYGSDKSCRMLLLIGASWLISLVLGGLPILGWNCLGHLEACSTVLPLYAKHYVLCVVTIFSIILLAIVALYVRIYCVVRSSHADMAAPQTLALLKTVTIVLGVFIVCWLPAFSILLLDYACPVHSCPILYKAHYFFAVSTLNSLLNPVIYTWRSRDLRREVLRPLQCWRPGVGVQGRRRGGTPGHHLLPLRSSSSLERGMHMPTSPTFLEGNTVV
Summary of the method: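 CHO cells stably expressing human S1PR2, serum-starved 1 h, Fluo8-loaded; compound-evoked Ca2+ fluorescence read 3 min (agonist mode), then after 15 min S1P at EC80 added and read 3 min (antagonist mode). Max/baseline fluorescence ratios normalised to vehicle and S1P EC100 or EC50 controls; EC50 derived.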

[2] = target: T2, human GPCR sphingosine 1-phosphate receptor 1 (Homo sapiens, UniProt P21453); test: S1PR1 selectivity Ca2+ flux assay (antagonist readout); format: cell-based
T2 construct: host or cells: CHO
T2 sequence (P21453 whole entry): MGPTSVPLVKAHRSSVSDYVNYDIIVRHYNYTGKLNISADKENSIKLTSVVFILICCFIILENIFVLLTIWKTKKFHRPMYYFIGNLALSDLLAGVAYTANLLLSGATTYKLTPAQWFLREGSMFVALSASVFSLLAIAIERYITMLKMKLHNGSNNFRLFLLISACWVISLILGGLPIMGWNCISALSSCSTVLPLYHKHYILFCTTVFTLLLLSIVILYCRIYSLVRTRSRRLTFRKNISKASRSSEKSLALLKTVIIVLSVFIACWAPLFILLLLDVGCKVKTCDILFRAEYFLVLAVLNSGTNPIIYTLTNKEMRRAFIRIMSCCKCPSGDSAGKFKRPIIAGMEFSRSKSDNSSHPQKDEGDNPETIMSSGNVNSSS
Procedure: (§1) 50 μL of Chinese hamster ovary (CHO) cells stably overexpressing human S1PR1 or S1PR5 are seeded in 384 well sterile microplates (7,500 cells/well or 10,000 cells/well respectively) and are incubated overnight at 37° C. under 5% CO2. Cells are subsequently washed twice with 25 μL/well of starvation medium (F-12 Ham's medium containing 0.1% fatty acid free bovine serum albumin (FAF BSA)). After one h starvation at 37° C., 5% CO2, cells are loaded with 25 μL of Fluo 8 dye diluted in Hank's balanced salt solution (HBSS) with 20 mM Hepes complemented with 5 mM of probenecid following the recommendations of the manufacturer (one h at 37° C., 5% CO2). Dilution series of compounds are prepared in HBSS buffer with 20 mM Hepes and 0.1% BSA (FAF). 10 μL of diluted compound is added to the cells using the FDSS/pCELL and intracellular calcium changes are measured immediately by recording fluorescence during 3 min (agonist readout). The ratio of maximal signal over background before compound injection is used to determine compound response.
After an incubation of 15 min at 37° C., following the agonist readout, the plates are transferred to the FDSS/pCELL reader. […] The ratio of maximal signal over background before S1P injection was used to determine the inhibitory effect ofthe compound.
(§2) Raw data obtained in each experiment (ratio of maximal signal over background for calcium mobilization assays) were normalized in percentage of activation (agonist mode) or inhibition (antagonist mode) using positive and negative experiment controls. Each individual plate quality was assessed by evaluation of Z′ factor calculated with raw data using the following equation
(§3) Y=bottom+(top−bottom)/(1+(10^(Log IC50−X)*Hillslope)) where X is the logarithm of the concentration of the compound

[3] = target: T3, human GPCR sphingosine 1-phosphate receptor 5 (Homo sapiens, UniProt Q9H228); test: S1PR5 selectivity Ca2+ flux assay (antagonist readout); format: cell-based; details: CHO cells overexpressing human S1PR5 and Gq, agonist at EC80 (20 nM), read-out: S1P5 EC50 (nM), S1P5 antagonist EC50
T3 construct: host or cells: CHO
T3 sequence (Q9H228 whole entry): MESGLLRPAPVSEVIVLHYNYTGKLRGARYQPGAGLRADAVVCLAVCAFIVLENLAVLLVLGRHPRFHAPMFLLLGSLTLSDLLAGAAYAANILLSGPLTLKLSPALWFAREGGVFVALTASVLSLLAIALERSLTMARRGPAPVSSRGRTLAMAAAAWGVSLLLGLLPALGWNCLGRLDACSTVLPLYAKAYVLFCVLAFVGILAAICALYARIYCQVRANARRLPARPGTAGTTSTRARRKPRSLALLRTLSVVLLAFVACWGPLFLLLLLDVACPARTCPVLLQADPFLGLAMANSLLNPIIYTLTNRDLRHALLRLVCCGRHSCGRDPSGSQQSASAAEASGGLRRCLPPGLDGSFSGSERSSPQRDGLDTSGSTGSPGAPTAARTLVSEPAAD
Excerpt: To evaluate the selectivity of the compounds for S1PR2 over S1PR1 and S1PR5, asimilar assay set upas described above for theS1PR2 calcium flux assays waspeformed: CHO cells stably overexpressing human GPCR sphingosine 1-phosphate receptor 1 and Gq protein (Euroscreen, FAST-0197A) or overexpressing human GPCR sphingosine 1-phosphate receptorS5 and Gq protein were used (Perkin Elmer, ES-593-A). In case of the S1PR5 assay triggering was done with an SPR5 specific agonist instead of with S1P (Hobson et al., 2015).
as §1
After an incubation of 15 min at 37° C., following the agonist readout, the plates are transferred to the FDSS/pCELL reader. Cells are stimulated with 10 μL of EC80 concentration of S1P (6 nM for S1P1 and 20 nM for S1P5) and intracellular calcium changes are measured immediately by recording fluorescence during three min (antagonist readout). The ratio of maximal signal over background before S1P injection was used to determine the inhibitory effect ofthe compound.
as §2, §3

S1PR2 = target: T4, S1PR2 (Homo sapiens, UniProt O95136); test: S1PR2 binding assay (competition with radioactively labeled S1P, SpA); details: membranes from stable cell line over expressing S1PR2, SpA beads; read-out: S1P2 EC50 (nM), S1PR2 binding EC50
T4 construct: expressed in transfected cells
T4 sequence (O95136 whole entry): as the sequence (O95136 whole entry) above
Summary of the method: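 Competition with [3H]S1P for membranes from a stable S1PR2-overexpressing cell line, 20 μg/well, captured on PVT-WGA SPA beads, in 20 mM Tris pH 7.5, 10 mM MgCl2, 100 mM NaCl, 0.4% fatty-acid-free BSA, 1 mM Na3VO4. 2 h at room temperature, then centrifugation and scintillation counting.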

HFL-1 cells [4] = test: IL8 assay in the presence of Human Serum Albumin; details: HFL1, read-out: HSA IL8 EC50
HFL-1 cells [5] = test: IL-8 production assay (S1P induced IL-8); format: cell-based; details: Homo sapiens, HFL1; S1P (1 μM) induced IL-8 in HFL-1 cells, starvation medium without HSA; read-out: IL8 EC50
Summary of the method: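 HFL-1 human fetal lung fibroblasts were starved in F12K/1% FBS, then given compound for 1 h (10-point, 1/3 dilution, 30 μM top, 0.3% DMSO final). S1P was added at 1 μM final for 16–24 h at 37 °C, and secreted IL-8 in supernatant quantified by ELISA.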

[6] = antagonist readout, CHO cells overexpressing human S1PR1 and Gq, S1P at EC80 (6 nM), read-out: S1P1 EC50 (nM), S1P1 antagonist EC50

Compound | EC50 [1] [nM] | EC50 [3] [nM] | EC50 (S1PR2) [nM] | EC50 (HFL-1 cells [4]) [nM] | EC50 (HFL-1 cells [5]) [nM] | EC50 [2, 6] [nM] | EC50 [2] [nM]
CC(C(=O)O)n1nc(Cn2cc3cc(OCC(F)F)c(Cl)cc3n2)c2ccccc2c1=O (stereo not drawn) [Compound 76] | 161 | 19800 | 317 | 3430 | – | – | ≥ 19800
CCOc1cc2nc(Cc3nn(CC(=O)O)c(=O)c4c(C)cccc34)[nH]c2cc1Cl [Compound 77, 2-[4-[(6-chloro-5-ethoxy-1H-benzimidazol-2-yl)methyl]-8-methyl-1-oxo-phthalazin-2-yl]acetic acid] | 29.8 | 6610 | 241 | 27.4 | 1.63 | – | –
CC(C(=O)O)n1nc(Cc2cn3cc(OCC4CC4)c(Cl)cc3n2)c2ccccc2c1=O (stereo not drawn) [Compound 83, 2-[4-[[7-chloro-6-(cyclopropylmethoxy)imidazo[1,2-a]pyridin-2-yl]methyl]-1-oxo-phthalazin-2-yl]propanoic acid] | 12.7 | 19800 | 53.2 | 125 | – | – | ≥ 19800
O=C(O)Cc1nn(Cc2cn3cc(OCC4CC4)c(C(F)(F)F)cc3n2)c2ccccc2c1=O [Compound 99, 2-[1-[[6-(cyclopropylmethoxy)-7-(trifluoromethyl)imidazo[1,2-a]pyridin-2-yl]methyl]-4-oxo-cinnolin-3-yl]acetic acid] | 3.56 | 6610 | 44.9 | 322 | – | – | –
CC(C(=O)O)c1nn(Cc2cn3cc(OCC4CC4)c(C(F)(F)F)cc3n2)c2ccccc2c1=O (stereo not drawn) [Compound 100, 2-[1-[[6-(cyclopropylmethoxy)-7-(trifluoromethyl)imidazo[1,2-a]pyridin-2-yl]methyl]-4-oxo-cinnolin-3-yl]propanoic acid] | 3.45 | 19800 | 51.1 | 63.5 | 4.97 | – | –
O=C(O)Cn1nc(Cn2cc3cc(OCC4CC4)c(Br)cc3n2)c2ccccc2c1=O [Compound 111, 2-[4-[[6-bromo-5-(cyclopropylmethoxy)indazol-2-yl]methyl]-1-oxo-phthalazin-2-yl]acetic acid] | 15.2 | 10000 | 49 | 1080 | 42.2 | – | –
O=C(Cn1nc(Cn2cc3cc(OCC4CC4)c(Cl)cc3n2)c2ccccc2c1=O)N1CCOCC1 [Compound 148, 4-[[6-chloro-5-(cyclopropylmethoxy)indazol-2-yl]methyl]-2-(2-morpholino-2-oxo-ethyl)phthalazin-1-one] | 41.5 | – | 32.1 | 785 | 68.9 | ≥ 19900 | –
CCOc1cc2cn(Cc3nn(CC(=O)O)c(=O)c4ccccc34)nc2cc1Cl [Compound 251, 2-[4-[(6-chloro-5-ethoxy-indazol-2-yl)methyl]-1-oxo-phthalazin-2-yl]acetic acid] | 179 | – | 113 | 3460 | 111 | ≥ 19900 | –
O=C(O)Cn1nc(Cn2cc3cc(OCC(F)F)c(Cl)cc3n2)c2ccccc2c1=O [Compound 253, 2-[4-[[6-chloro-5-(2,2-difluoroethoxy)indazol-2-yl)methyl]-1-oxo-phthalazin-2-yl]acetic acid] | 184 | – | 182 | 4130 | 290 | ≥ 19900 | –
O=C(O)Cn1nc(Cc2nc3nc(OCC4CC4)c(Cl)cc3[nH]2)c2ccccc2c1=O [Compound 257, 2-[4-[[6-chloro-5-(cyclopropylmethoxy)-1H-imidazo[4,5-b]pyridin-2-yl]methyl]-1-oxo-phthalazin-2-yl]acetic acid] | 24.3 | 19800 | 231 | 216 | 53.9 | – | –
CC(C(=O)O)n1nc(Cn2cc3cc(OCC4CC4)c(Cl)cc3n2)c2ccccc2c1=O (stereo not drawn) [compound 3, 2-[4-[[6-chloro-5-(cyclopropyl-methoxy)indazol-2-yl]methyl]-1-oxo-phthalazin-2-yl]propanoic acid] | – | 19800 | – | 217 | 3.99 | – | –
O=C(O)c1nn(Cc2nc3cc(OCC4CC4)c(Cl)cc3[nH]2)c2ccccc2c1=O [compound 5, 1-[[6-chloro-5-(cyclopropyl-methoxy)-1H-benzimidazol-2-yl]methyl]-4-oxo-cinnoline-3-carboxylic acid] | 3.48 | 1620 | 22 | 17.5 | 1.52 | – | –
CN(C)CC(C(=O)O)c1nn(Cc2nc3cc(C#N)c(OCC4CC4)cc3[nH]2)c2ccccc2c1=O (stereo not drawn) [compound 21, (2-[1-[[5-cyano-6-(cyclopropyl-methoxy)-1H-benzimidazol-2-yl]methyl]-4-oxocinnolin-3-yl]-3-(dimethyl-amino)propanoic acid)] | 5.4 | 19800 | 30.4 | 52.1 | 2.52 | – | –

Continued by falling EC50 (HFL-1 cells [4]), values first:

EC50 [1] [nM] | EC50 [3] [nM] | EC50 (S1PR2) [nM] | EC50 (HFL-1 cells [4]) [nM] | EC50 (HFL-1 cells [5]) [nM] | EC50 [2, 6] [nM] | Compound | EC50 [2] [nM]
62.6 | – | 239 | 16500 | 145 | ≥ 19900 | O=C(O)Cn1nc(Cn2cc3cc(OCC(F)(F)F)c(Cl)cc3n2)c2ccccc2c1=O [Compound 252, 2-[4-[[6-chloro-5-(2,2,2-trifluoroethoxy)indazol-2-yl]methyl]-1-oxo-phthalazin-2-yl]acetic acid] | –
6.33 | 19800 | 28.7 | 97.1 | 0.911 | – | CC(C(=O)O)n1nc(Cc2cn3cc(OCC4CC4)c(Cl)cc3n2)c2cc(F)ccc2c1=O (stereo not drawn) [Compound 86, 2-[4-[[7-chloro-6-(cyclopropylmethoxy)imidazo[1,2-a]pyridin-2-yl]methyl]-6-fluoro-1-oxo-phthalazin-2-yl]propanoic acid] | –
13.7 | 19800 | 15.6 | 41.4 | 6.14 | – | O=C(Cn1nc(Cc2nc3cc(Cl)c(OCC4CC4)cc3[nH]2)c2ccccc2c1=O)NC1CCCC1 [Compound 150, 2-[4-[[5-chloro-6-(cyclopropylmethoxy)-1H-benzimidazol-2-yl]methyl]-1-oxo-phthalazin-2-yl]-N-cyclopentyl-acetamide] | –
3.02 | 19800 | 30 | 18 | – | ≥ 19800 | Cc1cccc2c1c(=O)c(CC(=O)O)nn2Cc1cn2cc(OCC3CC3)c(Cl)cc2n1 [Compound 102, 2-[1-[[7-chloro-6-(cyclopropylmethoxy)imidazo[1,2-a]pyridin-2-yl]methyl]-5-methyl-4-oxo-cinnolin-3-yl]acetic acid] | –
2.17 | 2240 | 11.2 | 15.2 | 2.37 | – | N#Cc1cc2nc(Cn3nc(C(=O)O)c(=O)c4ccccc43)[nH]c2cc1OCC1CC1 [Compound 110, 1-[[5-cyano-6-(cyclopropylmethoxy)-1H-benzimidazol-2-yl]methyl]-4-oxo-cinnoline-3-carboxylic acid] | –
